{"source": "patent US12565458B2", "about": "“Granulated agricultural composition comprising macro- and micronutrients, and related methods” (YPF SOCIEDAD ANÓNIMA, priority 2021, dated 2026)", "test_system": "wheat", "assay": "Field experiment 2, Zn impregnation on urea, wheat 2018 (Example 5)", "type": "in vivo, wheat (SY 120)", "design": "WG (weight of grains): unit not given here"}
{"molecule": "NC(N)=O", "note": "[Urea 200]", "values": [{"measurement": "Yield", "setting": "wheat grain yield, Pergamino 2018", "value": 5136.4, "unit": "kg ha^−1"}, {"measurement": "Dry M Z25 (initial dry matter)", "setting": "wheat, Z25, Pergamino 2018", "value": 2450.0}, {"measurement": "Coverage and Intercep. Z65", "setting": "wheat, Z65, Pergamino 2018", "value": 91.7}, {"measurement": "NDVI GS 65 (Green seeker)", "setting": "wheat, Z65, Pergamino 2018", "value": 0.40}, {"measurement": "Plant height", "setting": "wheat, Z65, Pergamino 2018", "value": 75.0, "unit": "cm"}, {"measurement": "Spad Z65 (green intensity)", "setting": "wheat, Z65, Pergamino 2018", "value": 40.8, "unit": "Spad units"}, {"measurement": "Vigor Z65 (1-5)", "setting": "wheat, Z65, index 1 minimum 5 maximum", "value": 3.9}, {"measurement": "Plants m^−2 (number of emerged plants)", "setting": "wheat, Zn impregnation on Urea, Pergamino 2018", "value": 239.0, "unit": "m^−2"}, {"measurement": "NG m^−2 (number of grains)", "setting": "wheat, harvest, Pergamino 2018", "value": 16410.1, "unit": "m^−2"}, {"measurement": "WG (weight of grains)", "setting": "wheat, harvest, Pergamino 2018", "value": 31.3}]}
